Assay results published in US20220401385A1, “Combination Therapy Based on PD-1 Signaling Inhibitors” (Kyoto University, priority 2019, published 2022).
Entries after “also recorded” stand apart in the source; their conditions may differ.

Legend:
MethA or CT26 cells = test: MethA or CT26 tumor model; format: in vivo, BALB/c mice; conditions: BALB/c mouse, MethA (SPD 1 mg/kg) or CT26 (SPD 4 mg/kg), with PD-L1 antibody 2 mg/kg
Method: FIG. 2-2 a-b) MethA or CT26 cells were intradermally inoculated into BALB/c mice. Ten days after inoculation, PD-L1 antibody (2 mg/kg), PD-L1 antibody+SPD (1 mg/kg for Meth A, 4 mg/kg for CT26) or SPD alone was administered. c) LLC cells were intradermally inoculated into C57BL/6 mice. Ten days after inoculation, mice were treated in the same manner as described in a-b) above. SPD was administered at 4 mg/kg. d) MC38 cells were inoculated into C57BL/6 Rag2^−/− mice. Ten days after inoculation, mice were treated in the same manner as described in a-b) above. SPD was administered at 5 mg/kg. Tumor growth curve and survival curve are shown.

CD8+ T cells = test: Flow cytometry of draining lymph node and tumor-infiltrating CD8+ T cells of treated MC38 mice; format: in vivo, C57BL/6 mice
Method: (§1) FIG. 1-1 a) CD8^+ T cells or CD3^+ T cells were isolated from mice, and 2×10^5 cells were stimulated with CD3/CD28 beads in 96-well U plates. After 24 hours and 48 hours, cells and culture supernatant were collected, followed by measurement of spermidine (SPD) concentration by mass spectrometry. […] Ten days after inoculation, PD-L1 antibody (2 mg/kg), PD-L1 antibody+SPD (2 mg/kg), or SPD alone was administered. Subsequently, PD-L1 antibody was administered 4 times at a regular interval of 5 days, and SPD was administered 8 times at a regular interval of 3 days. Tumor growth curve and survival curve are shown. c) Draining lymph nodes (DLNs) of mice were isolated 13 days after tumor inoculation, and stained with antibodies to CD8, CD44 and CD62L. The number of cells in draining lymph node (cells/DLN) in each treatment group is shown at the left side. After being gated, CD8^+ T cells were fractionated with CD44 and CD62L into P1 to P4 cell populations. Percentages and cell numbers of P1 to P4 in each treatment group are shown. d) Tumor was isolated 13 days after tumor inoculation and treated with collagenase. Percentages and numbers per mg tumor of tumor-infiltrating CD8^+ CD45.2^+ cells are shown. For statistical analysis, ANOVA was used. * p<0.05, ** p<0.01, *** p<0.001, **** p<0.0001.
FIG. 2-1 a) Treated mice were analyzed for draining lymph nodes and the inside of tumor. Briefly, draining lymph nodes of mice were isolated 13 days after tumor inoculation, and stained with antibodies to CD8 and Sca-1. FACS diagram and percentages of Sca-1^+ cells in CD8^+ T cells are shown. b) CD8^+ T cells in isolated draining lymph nodes were stimulated with CD3/CD28 antibody beads. After 24 hours, cell proliferation was examined by means of ^3H uptake. At the same time, IFN-γ concentration in culture supernatant was measured. c) Tumor from the same mice as described above was treated with collagenase. Then, expression rates of PD-1 and Tim3 in tumor-infiltrating CD8^+ T cells were analyzed. d) Oxygen consumption rate (OCR) and extracellular acidification rate (ECAR) of draining lymph node CD8^+ T cells were measured with a Seahorse analyzer (N=3 wells). For statistical analysis, ANOVA was used. * p<0.05, ** p<0.01, *** p<0.001, **** p<0.0001.
For analyzing draining lymph nodes, cells from axillary, brachial, and inguinal lymph nodes on the right side of tumor-inoculated mice were harvested and mixed. Averaged cell numbers per one lymph node were used as absolute cell numbers. For tumor analysis, tumor tissues were minced into 2- to 3-mm pieces with scissors and digested with collagenase type IV (Thermo Fisher Scientific) using a gentle MACS Dissociator (Miltenyi Biotec). The numbers of tumor cells per mg were used as absolute numbers.
The following antibodies recognizing the indicated antigens were used: CD44 (1M7), CD45.2 (104), CD45.1 (A20), CD8 (53-6.7), CD62L (MEL-14) and Sca-1 (D7) from BioLegend. All flow cytometry experiments were performed on FACS Canto II (BD Biosciences) and analyzed using FlowJo software (FLOWJO, LLC). Apoptosis assay was performed with PI (Sigma) and Annexin (BioLegend) following the instructions on the kits.

MC38 cells = test: MC38 mouse therapy model, tumor growth and survival; format: in vivo, C57BL/6 mice
Method: as §1
FIG. 8 MC38 cells (5×10^5) were intradermally inoculated into C57BL/6 mice. Ten days after inoculation, PD-L1 antibody (2 mg/kg), PD-L1 antibody+SPD (2 mg/kg) or PD-L1 antibody+SPM (6 mg/kg) was administered. Subsequently, […] was administered 4 times at a regular interval of 5 days, whereas SPD and SPM were administered 8 times at a regular interval of 3 days. Tumor growth curve is shown.
MC38 cells (5×10^5) were intradermally injected on the right flank. Ten days after inoculation, PD-L1 antibody (1-111A; prepared by and stored at the Department of Immunology and Genomic Medicine, Graduate School of Medicine, Kyoto University) (Immunology Letters 84 (2002) 57-62) (2 mg/kg), PD-L1 antibody+SPD (2 mg/kg) or SPD alone was administered to mice. Subsequently, PD-L1 antibody was administered 4 times at a regular interval of 5 days, and SPD was administered 8 times at a regular interval of 3 days. Tumors were measured on every alternate day, and tumor volumes were calculated using the formula for typical ellipsoid, π×(length×breadth×height/6).

[1] = SPD + PD-1 inhibitory antibody, 13 days after tumor inoculation
[2] = combination therapy, 13 days after tumor inoculation

NCCCCNCCCN [SPD, spermidine]
effect of SPD for enhancing the antitumor immunity of PD-1 inhibition (MethA or CT26 cells): confirmed
absolute number of effector T cells (P3) in draining lymph nodes (CD8+ T cells; [1]): increase
cell number of the draining lymph nodes (CD8+ T cells; [1]): increase
frequency of effector T cells (P3) in draining lymph nodes (CD8+ T cells; [1]): increase
expression of Sca-1 (activation marker) in draining lymph node CD8+ T cells (CD8+ T cells; combination therapy using SPD): enhanced
frequency of exhausted CD8+ T cells (CD8+ PD-1+ Tim-3+), tumor-infiltrating (CD8+ T cells; combination therapy using SPD): decreased significantly
frequency of tumor-infiltrating CD8+ T cells (CD8+ T cells; [2]): increased
number of tumor-infiltrating CD8+ T cells (CD8+ T cells; [2]): increased
antitumor effect of the PD-1 inhibitory antibody (MC38 cells; SPD (2 mg/kg) in combination with PD-L1 antibody (2 mg/kg), MC38 in C57BL/6 mice): synergistically improved; also recorded: greatly enhanced
antitumor effect (MC38 cells; spermidine alone, in living bodies): no antitumor effect
